Target: T1, PD-1-Ig binding to PD-L1-TVMV-His (PD-L1-His) (Homo sapiens, UniProt Q9NZQ7)
T1 construct: hPDL1(19-239)-TVMV-His; made in house; host or cells: HEK293T cells
Assay: PD-1/PD-L1 Homogenous Time-Resolved Fluorescence (HTRF) binding assay
Settings: PD-1-Ig (20 nM) / PD-L1-His (10 nM); numeric values
Text: The ability of the macrocyclic peptides of the present disclosure to bind to PD-L1 was investigated using a PD-1/PD-L1 Homogenous Time-Resolved Fluorescence (HTRF) binding assay.
Homogenous Time-Resolved Fluorescence (HTRF) Assays of Binding of Soluble PD-1 to Soluble PD-L1. Soluble PD-1 and soluble PD-L1 refers to proteins with carboxyl-end truncations that remove the transmembrane-spanning regions and are fused to heterologous sequences, specifically the Fc portion of the human immunoglobuling G sequence (Ig) or the hexahistidine epitope tag (His). All binding studies were performed in an HTRF assay buffer consisting of dPBS supplemented with 0.1% (w/v) bovine serum albumin and 0.05% (v/v) Tween-20. For the PD-1-Ig/PD-L1-His binding assay, inhibitors were pre-incubated with PD-L1-His (10 nM final) for 15 m in 4 μl of assay buffer, followed by addition of PD-1-Ig (20 nM final) in 1 μl of assay buffer and further incubation for 15 m. PD-L1 fusion proteins from either human, cynomologous macaques, mouse, or other species were used. HTRF detection was achieved using europium crypate-labeled anti-Ig monoclonal antibody (1 nM final) and allophycocyanin (APC) labeled anti-His monoclonal antibody (20 nM final). Antibodies were diluted in HTRF detection buffer and 5 μl was dispensed on top of binding reaction. […] Additional binding assays were established between PD-1-Ig/PD-L2-His (20 and 5 nM, respectively), CD80-His/PD-L1-Ig (100 and 10 nM, respectively) and CD80-His/CTLA4-Ig (10 and 5 nM, respectively).
Recombinant Proteins. […] Human PD-L2-His (Sino Biologicals), CD80-His (Sino Biologicals), CTLA4-Ig (RnD Systems) were all obtained through commercial sources.

T1 sequence (Q9NZQ7 with tags, fused parts or gaps): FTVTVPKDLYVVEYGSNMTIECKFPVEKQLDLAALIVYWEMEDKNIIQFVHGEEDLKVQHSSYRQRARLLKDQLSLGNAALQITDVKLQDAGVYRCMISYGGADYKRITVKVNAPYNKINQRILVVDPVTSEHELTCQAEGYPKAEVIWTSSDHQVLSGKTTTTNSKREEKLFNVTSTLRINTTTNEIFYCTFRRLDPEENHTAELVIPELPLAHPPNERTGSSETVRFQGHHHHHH

IC50 | Compound
0.015 µM | CCCC[C@H]1C(=O)N(C)[C@@H](CCCC)C(=O)N[C@@H](CC(C)C)C(=O)N[C@H](C(=O)NCC(N)=O)CNCC(=O)N[C@@H](Cc2ccc(F)cc2)C(=O)N(C)[C@@H](C)C(=O)N[C@@H](CC(=O)O)C(=O)N2CCC[C@H]2C(=O)N[C@@H](CCC(N)=O)C(=O)N[C@@H](CC(=O)O)C(=O)N2C[C@H](O)C[C@H]2C(=O)N[C@@H](Cc2c[nH]c3ccccc23)C(=O)N[C@@H](CC(N)=O)C(=O)N[C@@H](Cc2cn(CC(=O)O)c3ccccc23)C(=O)N1C [Example 9015]
0.016 µM | CCCC[C@H]1C(=O)N(C)[C@@H](CCCC)C(=O)N[C@@H](CCC(=O)O)C(=O)N[C@H](C(=O)NCC(N)=O)CNCC(=O)N[C@@H](Cc2ccc(F)cc2)C(=O)N(C)[C@@H](C)C(=O)N[C@@H](CC(N)=O)C(=O)N2CCC[C@H]2C(=O)N[C@@H](CCC(N)=O)C(=O)N[C@@H](CCC(N)=O)C(=O)N2C[C@H](O)C[C@H]2C(=O)N[C@@H](Cc2c[nH]c3ccccc23)C(=O)N[C@@H](CC(N)=O)C(=O)N[C@@H](Cc2cn(CC(=O)O)c3ccccc23)C(=O)N1C [Example 9025]

Same assay, conditions: PD-1-Ig (20 nM) / PD-L1-His (10 nM); range classes

Compound | IC50
CCCC[C@H]1C(=O)N(C)[C@@H](CCCC)C(=O)N[C@@H](CC(C)C)C(=O)N[C@H](C(=O)NCC(N)=O)CNCC(=O)N[C@@H](Cc2ccc(F)cc2)C(=O)N(C)[C@@H](C)C(=O)N[C@@H](CC(=O)O)C(=O)N2CCC[C@H]2C(=O)N[C@@H](CCC(N)=O)C(=O)N[C@@H](CCC(N)=O)C(=O)N2C[C@H](O)C[C@H]2C(=O)N[C@@H](Cc2c[nH]c3ccccc23)C(=O)N[C@@H](CC(N)=O)C(=O)N[C@@H](Cc2cn(CC(=O)O)c3ccccc23)C(=O)N1C [Example 9017] | 0.01 to 0.099 µM
CCCC[C@H]1C(=O)N(C)[C@@H](CCCC)C(=O)N[C@@H](CCC(=O)O)C(=O)N[C@H](C(=O)NCC(N)=O)CNCC(=O)N[C@@H](Cc2ccc(O)cc2)C(=O)N(C)[C@@H](C)C(=O)N[C@@H](CC(N)=O)C(=O)N2CCC[C@H]2C(=O)N[C@@H](CCC(N)=O)C(=O)N[C@@H](CC(=O)O)C(=O)N2C[C@H](O)C[C@H]2C(=O)N[C@@H](Cc2c[nH]c3ccccc23)C(=O)N[C@@H](CC(N)=O)C(=O)N[C@@H](Cc2cn(CC(=O)O)c3ccccc23)C(=O)N1C [Example 9019] | 0.001 to 0.0099 µM
CCCC[C@H]1C(=O)N(C)[C@@H](CCCC)C(=O)N[C@@H](CCC(=O)O)C(=O)N[C@H](C(=O)NCC(N)=O)CNCC(=O)N[C@@H](Cc2ccc(O)cc2)C(=O)N(C)[C@@H](C)C(=O)N[C@@H](CC(N)=O)C(=O)N2CCC[C@H]2C(=O)N[C@@H](CCC(N)=O)C(=O)N[C@@H](CCC(N)=O)C(=O)N2C[C@H](O)C[C@H]2C(=O)N[C@@H](Cc2c[nH]c3ccccc23)C(=O)N[C@@H](CC(N)=O)C(=O)N[C@@H](Cc2cn(CC(=O)O)c3ccccc23)C(=O)N1C [Example 9021] | 0.01 to 0.099 µM
CCCC[C@H]1C(=O)N(C)[C@@H](CCCC)C(=O)N[C@@H](CC(C)C)C(=O)N[C@H](C(N)=O)CNCC(=O)N[C@@H](Cc2ccc(O)cc2)C(=O)N2CCCC[C@H]2C(=O)N[C@@H](CC(N)=O)C(=O)N2CCC[C@H]2C(=O)N[C@@H](CCC(N)=O)C(=O)N[C@@H](CC(C)C)C(=O)N2C[C@H](O)C[C@H]2C(=O)N[C@@H](Cc2c[nH]c3ccccc23)C(=O)N[C@@H](CC(N)=O)C(=O)N[C@@H](Cc2cn(CC(=O)O)c3ccccc23)C(=O)N1C [Example 9026] | 0.001 to 0.0099 µM
CCCC[C@H]1C(=O)N(C)[C@@H](CCCC)C(=O)N[C@@H](CC(C)C)C(=O)N[C@H](C(N)=O)CNCC(=O)N[C@@H](Cc2ccc(O)cc2)C(=O)N2CCCC[C@H]2C(=O)N[C@@H](CC(N)=O)C(=O)N2CCC[C@H]2C(=O)N[C@@H](CCC(N)=O)C(=O)N[C@@H](CC(=O)O)C(=O)N2C[C@H](O)C[C@H]2C(=O)N[C@@H](Cc2c[nH]c3ccccc23)C(=O)N[C@@H](CC(N)=O)C(=O)N[C@@H](Cc2cn(CC(=O)O)c3ccccc23)C(=O)N1C [Example 9027] | 0.001 to 0.0099 µM
CCCC[C@H]1C(=O)N(C)[C@@H](CCCC)C(=O)N[C@@H](CC(C)C)C(=O)N[C@H](C(N)=O)CNCC(=O)N[C@@H](Cc2ccc(O)cc2)C(=O)N2CCCC[C@H]2C(=O)N[C@@H](CC(N)=O)C(=O)N2CCC[C@H]2C(=O)N[C@@H](CCC(N)=O)C(=O)N[C@@H](CCC(=O)O)C(=O)N2C[C@H](O)C[C@H]2C(=O)N[C@@H](Cc2c[nH]c3ccccc23)C(=O)N[C@@H](CC(N)=O)C(=O)N[C@@H](Cc2cn(CC(=O)O)c3ccccc23)C(=O)N1C [Example 9028] | 0.001 to 0.0099 µM
CCCC[C@H]1C(=O)N(C)[C@@H](CCCC)C(=O)N[C@@H](CC(C)C)C(=O)N[C@H](C(N)=O)CNCC(=O)N[C@@H](Cc2ccc(F)cc2)C(=O)N2CCCC[C@H]2C(=O)N[C@@H](CC(N)=O)C(=O)N2CCC[C@H]2C(=O)N[C@@H](CCC(N)=O)C(=O)N[C@@H](CC(C)C)C(=O)N2C[C@H](O)C[C@H]2C(=O)N[C@@H](Cc2c[nH]c3ccccc23)C(=O)N[C@@H](CC(N)=O)C(=O)N[C@@H](Cc2cn(CC(=O)O)c3ccccc23)C(=O)N1C [Example 9030] | 0.01 to 0.099 µM

Next, values leading:

IC50 | Compound
0.001 to 0.0099 µM | CCCC[C@H]1C(=O)N(C)[C@@H](CCCC)C(=O)N[C@@H](CC(C)C)C(=O)N[C@H](C(=O)NCC(N)=O)CNCC(=O)N[C@@H](Cc2ccc(F)cc2)C(=O)N(C)[C@@H](C)C(=O)N[C@@H](CC(=O)O)C(=O)N2CCC[C@H]2C(=O)N[C@@H](CCC(N)=O)C(=O)N[C@@H](CCC(=O)O)C(=O)N2C[C@H](O)C[C@H]2C(=O)N[C@@H](Cc2c[nH]c3ccccc23)C(=O)N[C@@H](CC(N)=O)C(=O)N[C@@H](Cc2cn(CC(=O)O)c3ccccc23)C(=O)N1C [Example 9016]
0.001 to 0.0099 µM | CCCC[C@H]1C(=O)N(C)[C@@H](CCCC)C(=O)N[C@@H](CCC(=O)O)C(=O)N[C@H](C(=O)NCC(N)=O)CNCC(=O)N[C@@H](Cc2ccc(O)cc2)C(=O)N(C)[C@@H](C)C(=O)N[C@@H](CC(N)=O)C(=O)N2CCC[C@H]2C(=O)N[C@@H](CCC(N)=O)C(=O)N[C@@H](CC(C)C)C(=O)N2C[C@H](O)C[C@H]2C(=O)N[C@@H](Cc2c[nH]c3ccccc23)C(=O)N[C@@H](CC(N)=O)C(=O)N[C@@H](Cc2cn(CC(=O)O)c3ccccc23)C(=O)N1C [Example 9018]
0.01 to 0.099 µM | CCCC[C@H]1C(=O)N(C)[C@@H](CCCC)C(=O)N[C@@H](CCC(=O)O)C(=O)N[C@H](C(=O)NCC(N)=O)CNCC(=O)N[C@@H](Cc2ccc(O)cc2)C(=O)N(C)[C@@H](C)C(=O)N[C@@H](CC(N)=O)C(=O)N2CCC[C@H]2C(=O)N[C@@H](CCC(N)=O)C(=O)N[C@@H](CCC(=O)O)C(=O)N2C[C@H](O)C[C@H]2C(=O)N[C@@H](Cc2c[nH]c3ccccc23)C(=O)N[C@@H](CC(N)=O)C(=O)N[C@@H](Cc2cn(CC(=O)O)c3ccccc23)C(=O)N1C [Example 9020]
0.01 to 0.099 µM | CCCC[C@H]1C(=O)N(C)[C@@H](CCCC)C(=O)N[C@@H](CCC(=O)O)C(=O)N[C@H](C(=O)NCC(N)=O)CNCC(=O)N[C@@H](Cc2ccc(F)cc2)C(=O)N(C)[C@@H](C)C(=O)N[C@@H](CC(N)=O)C(=O)N2CCC[C@H]2C(=O)N[C@@H](CCC(N)=O)C(=O)N[C@@H](CC(C)C)C(=O)N2C[C@H](O)C[C@H]2C(=O)N[C@@H](Cc2c[nH]c3ccccc23)C(=O)N[C@@H](CC(N)=O)C(=O)N[C@@H](Cc2cn(CC(=O)O)c3ccccc23)C(=O)N1C [Example 9022]
0.01 to 0.099 µM | CCCC[C@H]1C(=O)N(C)[C@@H](CCCC)C(=O)N[C@@H](CCC(=O)O)C(=O)N[C@H](C(=O)NCC(N)=O)CNCC(=O)N[C@@H](Cc2ccc(F)cc2)C(=O)N(C)[C@@H](C)C(=O)N[C@@H](CC(N)=O)C(=O)N2CCC[C@H]2C(=O)N[C@@H](CCC(N)=O)C(=O)N[C@@H](CC(=O)O)C(=O)N2C[C@H](O)C[C@H]2C(=O)N[C@@H](Cc2c[nH]c3ccccc23)C(=O)N[C@@H](CC(N)=O)C(=O)N[C@@H](Cc2cn(CC(=O)O)c3ccccc23)C(=O)N1C [Example 9023]
0.01 to 0.099 µM | CCCC[C@H]1C(=O)N(C)[C@@H](CCCC)C(=O)N[C@@H](CCC(=O)O)C(=O)N[C@H](C(=O)NCC(N)=O)CNCC(=O)N[C@@H](Cc2ccc(F)cc2)C(=O)N(C)[C@@H](C)C(=O)N[C@@H](CC(N)=O)C(=O)N2CCC[C@H]2C(=O)N[C@@H](CCC(N)=O)C(=O)N[C@@H](CCC(=O)O)C(=O)N2C[C@H](O)C[C@H]2C(=O)N[C@@H](Cc2c[nH]c3ccccc23)C(=O)N[C@@H](CC(N)=O)C(=O)N[C@@H](Cc2cn(CC(=O)O)c3ccccc23)C(=O)N1C [Example 9024]
0.001 to 0.0099 µM | CCCC[C@H]1C(=O)N(C)[C@@H](CCCC)C(=O)N[C@@H](CC(C)C)C(=O)N[C@H](C(N)=O)CNCC(=O)N[C@@H](Cc2ccc(O)cc2)C(=O)N2CCCC[C@H]2C(=O)N[C@@H](CC(N)=O)C(=O)N2CCC[C@H]2C(=O)N[C@@H](CCC(N)=O)C(=O)N[C@@H](CCC(N)=O)C(=O)N2C[C@H](O)C[C@H]2C(=O)N[C@@H](Cc2c[nH]c3ccccc23)C(=O)N[C@@H](CC(N)=O)C(=O)N[C@@H](Cc2cn(CC(=O)O)c3ccccc23)C(=O)N1C [Example 9029]

— patent US9732119B2, “Immunomodulators” (BRISTOL-MYERS SQUIBB COMPANY, priority 2014, dated 2017)
